One series addresses CYP3A4 (Homo sapiens, UniProt P08684). Kind of series: CYP inhibition, 3A4. Type of series: in vitro ADME.
For a further series, the system named is hM2-5. Kind of series: Muscarinic selectivity, human M2-5. The class given is cell-based. The procedure:
Procedures for Biological Experiments
Calcium mobilization assays:
All functional cell-based assays were performed in stable Chinese Hamster Ovary (CHO) cell lines constitutively expressing human M5 or human M1 receptors. For full muscarinic selectivity, CHO cells expressing human M3, human M2 plus Gqi5 or human M4 plus Gqi5 were used. Cells were plated at 15,000 cells per 20 µL per well in black 384-well, TC-treated, clear-bottomed plates (Greiner) in Ham’s F12 medium supplemented with 10% FBS and 20 mM HEPES. Cells were incubated overnight at 37 °C under 5% CO2. The following day, the medium was removed and replaced with 1.2 µM Fluo-4 AM (Invitrogen) in assay buffer (Hank’s Balanced Salt Solution supplemented with 20 mM HEPES and 2.5 mM Probenecid, pH 7.4) and the cells were incubated for 50 minutes at 37 °C under 5% CO2. Dye was then removed and replaced with 20 µL of fresh assay buffer. Test compounds at a 10 mM concentration in DMSO were serially diluted in DMSO (either 1:3 or 1:5 dilution) to create a 10-point concentration series. The DMSO solutions were then diluted in assay buffer resulting in compound solutions at 2-times the final assay concentration with the highest assay concentration of 30 µM. The compound plate, cell plate, and plates containing EC20 and EC80 acetylcholine concentrations were placed in a Hamamatsu FDSS 6000 or 7000 kinetic imaging plate reader equipped to measure Ex480/Em540 fluorescence. Data were collected at 1 frame per second. After 2 seconds of collecting baseline fluorescence, 20 µL of the compound solutions were added to the cell plate. This was followed by the addition of an EC20 concentration of acetylcholine at 142 seconds. […] The fluorescence signal was collected for a total of 300 seconds. […] Data were imported and analyzed in Dotmatics Informatics software. by normalizing all data in the individual kinetic traces to the initial fluorescence read. The magnitude of each agonist addition was then determined and normalized to the average maximum response. […] The IC50 determined using the EC80 of acetylcholine is the value reported. […]

Series [1] can be described thus: Predicted hepatic clearance, human hepatic microsomes. The class given is in vitro ADME. The procedure: Intrinsic clearance: Human or rat hepatic microsomes (0.5 mg/mL) and 1 µM test compound were incubated in 100 mM potassium phosphate pH 7.4 buffer with 3 mM MgCl2 at 37 °C with constant shaking. After a 5 min preincubation, the reaction was initiated by the addition of NADPH (1 mM). At selected time intervals (0, 3, 7, 15, 25, and 45 min), aliquots were taken and subsequently placed into a 96-well plate containing cold acetonitrile with internal standard (50 ng/mL carbamazepine). Plates were then centrifuged at 3000 rcf (4 °C) for 10 min, and the supernatant was transferred to a separate 96-well plate and diluted 1:1 with water for LC/MS/MS analysis. The in vitro half-life ( 1/2, min, Eq. 1), intrinsic clearance (CLint, mL/min/kg, Eq. 2), and subsequent predicted hepatic clearance (CLhep, mL/min/kg, Eq. 3) was determined employing the […]
where k represents the slope from linear regression analysis of the natural log percent remaining of a test compound as a function of incubation time […]
(2) CLint = in vitroT1/2 x mg microsomes x gram liver x kg body wt ascale-up factors: of 20 (human) or 45 (rat) […]
where Qh (hepatic blood flow, mL/min/kg) is 21 (human) or 70 (rat).
LC/MS/MS Bioanalysis of Samples from Plasma Protein Binding and Intrinsic Clearance […]
Samples were analyzed on a Thermo Electron TSQ Quantum Ultra triple quad mass spectrometer (San Jose, CA) via electrospray ionization (ESI) with two Themo Electron Accella pumps (San Jose, CA), and a Leap Technologies CTC PAL autosampler (Carrboro, NC). Analytes were separated by gradient elution on a dual column system with two Thermo Hypersil Gold (2.1 x 30 mm, 1.9 µm) columns (San Jose, CA) thermostated at 40 °C. HPLC mobile phase A was 0.1% formic acid in water and mobile phase B was 0.1% formic acid in acetonitrile. The gradient started […]
for 0.2 min; returned to 10% B in 0.1 min. The total run time was 1.3 min and the HPLC flow rate was 0.8 mL/min. […]

The target in another series is T1, CYP1A2 (Homo sapiens, UniProt P05177).
T1 sequence (P05177 1-516): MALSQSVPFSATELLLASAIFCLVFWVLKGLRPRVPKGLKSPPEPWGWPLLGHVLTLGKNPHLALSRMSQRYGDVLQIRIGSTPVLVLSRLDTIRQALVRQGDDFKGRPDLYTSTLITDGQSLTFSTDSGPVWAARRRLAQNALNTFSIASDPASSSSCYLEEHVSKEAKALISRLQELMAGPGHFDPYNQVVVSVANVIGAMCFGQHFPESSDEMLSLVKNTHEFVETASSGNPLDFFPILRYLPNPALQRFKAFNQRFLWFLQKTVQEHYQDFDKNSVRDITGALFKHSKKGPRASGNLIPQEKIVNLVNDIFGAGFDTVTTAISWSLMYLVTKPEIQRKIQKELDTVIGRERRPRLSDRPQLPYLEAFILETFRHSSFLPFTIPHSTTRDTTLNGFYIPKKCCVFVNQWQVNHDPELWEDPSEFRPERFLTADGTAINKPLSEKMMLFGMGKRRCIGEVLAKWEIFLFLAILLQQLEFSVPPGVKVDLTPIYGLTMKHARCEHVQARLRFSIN
Kind of series: CYP inhibition, 1A2. The class given is in vitro ADME.

Chain of CYP3A4 (P08684 whole entry): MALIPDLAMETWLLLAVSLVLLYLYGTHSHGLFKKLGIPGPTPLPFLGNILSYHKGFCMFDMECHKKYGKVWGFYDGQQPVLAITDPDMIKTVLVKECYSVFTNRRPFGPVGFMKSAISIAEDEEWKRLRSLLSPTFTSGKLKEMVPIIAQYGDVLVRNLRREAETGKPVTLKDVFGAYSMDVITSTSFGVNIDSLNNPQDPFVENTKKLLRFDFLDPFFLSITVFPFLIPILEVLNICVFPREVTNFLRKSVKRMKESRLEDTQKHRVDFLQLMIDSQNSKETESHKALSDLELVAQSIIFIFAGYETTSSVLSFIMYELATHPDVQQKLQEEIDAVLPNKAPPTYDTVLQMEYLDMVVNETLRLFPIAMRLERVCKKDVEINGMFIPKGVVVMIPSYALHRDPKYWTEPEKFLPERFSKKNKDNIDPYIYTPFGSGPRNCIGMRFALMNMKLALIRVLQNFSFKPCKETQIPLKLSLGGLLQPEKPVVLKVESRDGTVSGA

Broadly, the IC50 is the point on the concentration scale where inhibition reaches its midpoint. A word on the EC50: it is the midpoint of the concentration-response curve. High values mean lower potency in that assay, low ones higher potency in that assay. Take `Cn1ccc(-c2ccc(Cc3cc(C(=O)NC4CCOCC4)nc4ccn(C)c34)cc2)n1` [compound 11]: the IC50 on CYP3A4 and against CYP1A2 was over 30 µM in each case. In the series on hM2-5, this molecule registered an EC50 of over 30 µM. The “Predicted CLhep, human” value in series [1] is 12 mL/min/kg.
Regarding `Cn1ccc(-c2ccc(Cc3cc(C(=O)NC4CCOCC4)nc4ccsc34)cc2)n1` [compound 12], the IC50 against CYP3A4 and on CYP1A2 was over 30 µM throughout. In the series with hM2-5, this molecule displayed an EC50 of over 30 µM. The “Predicted CLhep, human” value in series [1] is reported as 7.5 mL/min/kg.
With `Cn1ccc2nc(C(=O)NC3CCOCC3)cc(Cc3ccc(-c4cc[nH]n4)cc3)c21` [compound 24], the half-maximal inhibitory concentration (IC50) against CYP3A4 was 5.7 µM; against CYP1A2, over 30 µM. In addition, in the series on hM2-5, the “activity on human M2–5” value is “inactive”. Also, the “Predicted CLhep, human” value in series [1] was 12.8 mL/min/kg.
